Measured values published in patent US8071605B2, “Piperidine compounds for use in the treatment of bacterial infections” (AstraZeneca AB, priority 2008, dated 2011).
Converted amounts (≈) assume the structure as drawn.

Test system: Streptococcus pneumoniae
Assay: Bacterial susceptibility testing in liquid media (MIC)
Type: cell-based
Settings: against Streptococcus pneumoniae; lowest concentration reducing growth by 80% or more
Text: Compounds may be tested for antimicrobial activity by susceptibility testing in liquid media. Compounds may be dissolved in dimethylsulfoxide and tested in 10 doubling dilutions in the susceptibility assays. The organisms used in the assay may be grown overnight on suitable agar media and then suspended in a liquid medium appropriate for the growth of the organism. The suspension can be a 0.5 McFarland and a further 1 in 10 dilution can be made into the same liquid medium to prepare the final organism suspension in 100 μL. Plates can be incubated under appropriate conditions at 37° C. for 24 hrs prior to reading. The Minimum Inhibitory Concentration (MIC) may be determined as the lowest drug concentration able to reduce growth by 80% or more.

| SMILES | MIC |
| --- | --- |
| COCCn1ccnc1-c1nc(N2CC[C@@H](NC(=O)c3[nH]c(C)c(Cl)c3Cl)[C@@H](C)C2)sc1C(=O)O [Example 23] | 0.78 µg/mL (≈ 1.44 µM) |

Target: S. aureus GyrB ATPase (Staphylococcus aureus, UniProt P0A0K8)
Assay: S. aureus GyrB ATPase inhibition (ammonium molybdate/malachite green phosphate detection)
Type: biochemical
Settings: compound concentration of 1 μM (unless otherwise noted)
Summary of the method: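 S. aureus GyrB (250 pM) with E. coli GyrA (250 pM), 250 μM ATP and sheared DNA in pH 7.5 Hepes; phosphate release by malachite green/molybdate at 650 nm. Values are percent inhibition at 1 μM compound unless noted, against 2% DMSO and EDTA controls.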

Sequence of S. aureus GyrB ATPase (P0AES4 whole entry): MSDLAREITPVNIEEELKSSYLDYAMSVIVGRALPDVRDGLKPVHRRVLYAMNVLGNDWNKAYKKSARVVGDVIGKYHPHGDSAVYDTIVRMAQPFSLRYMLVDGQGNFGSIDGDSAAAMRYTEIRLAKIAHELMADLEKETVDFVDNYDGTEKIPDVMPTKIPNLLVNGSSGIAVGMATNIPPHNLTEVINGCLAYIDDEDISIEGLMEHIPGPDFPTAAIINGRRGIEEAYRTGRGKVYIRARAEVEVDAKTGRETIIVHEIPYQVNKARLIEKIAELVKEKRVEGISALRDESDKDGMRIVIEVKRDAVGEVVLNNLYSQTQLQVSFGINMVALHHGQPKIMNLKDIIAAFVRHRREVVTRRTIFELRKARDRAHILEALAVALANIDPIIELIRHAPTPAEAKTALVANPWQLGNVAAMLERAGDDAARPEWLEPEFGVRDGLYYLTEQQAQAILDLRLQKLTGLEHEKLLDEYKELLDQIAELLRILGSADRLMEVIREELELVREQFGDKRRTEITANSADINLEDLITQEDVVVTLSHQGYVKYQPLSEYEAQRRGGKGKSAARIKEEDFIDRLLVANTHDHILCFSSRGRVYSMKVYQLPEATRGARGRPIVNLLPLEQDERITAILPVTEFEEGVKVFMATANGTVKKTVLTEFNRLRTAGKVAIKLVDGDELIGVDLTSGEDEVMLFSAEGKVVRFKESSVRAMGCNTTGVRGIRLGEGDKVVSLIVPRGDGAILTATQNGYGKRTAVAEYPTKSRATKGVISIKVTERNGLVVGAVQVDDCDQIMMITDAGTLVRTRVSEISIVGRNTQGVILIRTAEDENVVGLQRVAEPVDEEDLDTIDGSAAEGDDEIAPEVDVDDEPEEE
Sequence of S. aureus GyrB ATPase (P0A0K8 whole entry): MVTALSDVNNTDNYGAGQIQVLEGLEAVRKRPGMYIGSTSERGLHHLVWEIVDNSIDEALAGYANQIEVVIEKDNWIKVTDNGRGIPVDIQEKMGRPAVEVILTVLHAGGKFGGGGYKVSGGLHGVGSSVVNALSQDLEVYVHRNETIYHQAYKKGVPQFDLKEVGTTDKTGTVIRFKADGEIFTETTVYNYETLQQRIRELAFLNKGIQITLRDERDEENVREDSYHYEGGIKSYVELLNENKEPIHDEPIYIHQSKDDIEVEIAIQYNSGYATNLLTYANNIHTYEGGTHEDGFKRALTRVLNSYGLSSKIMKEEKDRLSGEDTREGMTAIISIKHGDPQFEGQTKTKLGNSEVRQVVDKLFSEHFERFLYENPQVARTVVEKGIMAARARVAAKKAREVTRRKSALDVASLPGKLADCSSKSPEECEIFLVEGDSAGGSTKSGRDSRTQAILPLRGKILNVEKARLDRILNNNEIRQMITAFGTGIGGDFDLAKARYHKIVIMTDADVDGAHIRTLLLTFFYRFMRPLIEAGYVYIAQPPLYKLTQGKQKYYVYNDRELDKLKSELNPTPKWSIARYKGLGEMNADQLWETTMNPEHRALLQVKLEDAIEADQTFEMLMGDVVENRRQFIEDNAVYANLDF

| SMILES | inhibition at 1 µM |
| --- | --- |
| COCCn1ccnc1-c1nc(N2CC[C@@H](NC(=O)c3[nH]c(C)c(Cl)c3Cl)[C@@H](C)C2)sc1C(=O)O [Example 23] | 100% |
| Cc1[nH]c(C(=O)N[C@@H]2CCN(c3nc(-c4cnc(N5CCCCC5)cn4)c(C(=O)O)s3)C[C@@H]2C)c(Cl)c1Cl [Example 165, 2-[(3S,4R)-4-{[(3,4-dichloro-5-methyl-1H-pyrrol-2-yl)carbonyl]amino}-3-methylpiperidin-1-yl]-4-[5-(piperidin-1-yl)pyrazin-2-yl]-1,3-thiazole-5-carboxylic acid] | 107% |
| CO[C@H]1CN(c2nc(-c3cnc(NCCN4CCNC4=O)cn3)c(C(=O)O)s2)CC[C@H]1NC(=O)c1[nH]c(C)c(Cl)c1Cl [Example 131] | 108% |
| CCO[C@H]1CN(c2nc(-c3ncccc3F)c(C(=O)O)s2)CC[C@H]1NC(=O)c1[nH]c(C)c(Cl)c1C#N [Example 14] | 91% |
| CO[C@H]1CN(c2nc(-c3cnc(N4CCN[C@H](C)C4)cn3)c(C(=O)O)s2)CC[C@H]1NC(=O)c1[nH]c(C)c(Cl)c1Cl [Example 140] | 107% |
| CCC(CC)N1CCN(c2cnc(-c3nc(N4CC[C@@H](NC(=O)c5[nH]c(C)c(Cl)c5Cl)[C@@H](OC)C4)sc3C(=O)O)cn2)CC1 [Example 137] | 101% |
| CCCO[C@H]1CN(c2nc(-c3ncccc3F)c(C(=O)O)s2)CC[C@H]1NC(=O)c1[nH]c(C)c(Cl)c1Cl [Example 217, 2-[(3S,4R)-4-{[(3,4-dichloro-5-methyl-1H-pyrrol-2-yl)carbonyl]amino}-3-propoxypiperidin-1-yl]-4-(3-fluoropyridin-2-yl)-1,3-thiazole-5-carboxylic acid] | 113% |
| COCCn1ccnc1-c1nc(N2CC[C@@H](NC(=O)c3[nH]c(C)c(Cl)c3C#N)[C@@H](C)C2)sc1C(=O)O [Example 27] | 102% |
| CCO[C@H]1CN(c2nc(-c3cnc(N4CCN(CC5CCCCC5)CC4)cn3)c(C(=O)O)s2)CC[C@H]1NC(=O)c1[nH]c(C)c(Cl)c1Cl [Example 98] | 116% |
